Laboratory results published in patent US20200131227A1, “POLYPEPTIDE WITH TUMOUR BINDING ACTIVITY” (RUPRECHT-KARLS-UNIVERSITÄT HEIDELBERG, priority 2017, published 2020).
Where a SMILES comes first, the peptide text is derived from it. Bridges are numbered along the chain shown (N, C = ends). The star is where a group is joined. DOTA = O=C(O)CN1CCN(CC(=O)O)CCN(CC(=O)*)CCN(CC(=O)O)CC1

Legend:
tumor-free lymph nodes = assay: Histochemical peptide staining of carcinoma-free lymph nodes; set-up: species or system human
Description: Staining with the biotinylated PEG(12)-SFITGv6 peptide was performed on acetone-fixed cryosections (5 μm) of tumor tissues after blocking of unspecific binding using the Avidin/Biotin Blocking Kit (SP-2001, Vector Laboratories). A stock solution of the lyophilized peptide was prepared by dilution in 5% aqueous DMSO. Slices were incubated overnight at 4° C. with 10^-5 M peptide concentration in antibody diluent (DAKO). Detection of bound peptide was carried out with the Vectastain Elite ABC Kit (PK-6100, Vector Laboratories) according to manufacturer's protocol. Peptide specificity was ensured by a scrambled (GRD) PEG(12)-SFITGv6 derivate, the somatostatin receptor ligand DOTATOC and negative controls (without peptide or primary antibody) Staining results were assessed by bright field microscopy (BX50) with the SC30 camera and the cell Sense software (all Olympus).

[1] = test system: HNSCC cell lines HNO97, HNO399, and HNO223; format: binding, human
Description: For the assessment of the peptide binding capacity in vitro, 2.5-4×10^5 cells were seeded into 6-well plates and cultivated for 48 h. ^125I-labeled peptide resuspended in 1 mL serum-free medium was added and incubated for either 10 min or 60 min with or without different concentrations of unlabeled peptide (10^−4-10^−11 M). Afterwards, cell monolayers were washed three times with 1 mL phosphate-buffered saline (pH 7.4) to remove unbound peptide and the cells were harvested with 1.4 mL lysis buffer (0.3 M NaOH). To evaluate kinetic properties the cells were exposed to ^177Lu-DOTA-labeled peptides for 10, 30, 60, 120, and 240 min, respectively, and lysed as described. For the efflux experiments the cells were incubated with ^177Lu-DOTA-labeled peptides for 60 min. Thereafter, radioactive medium was replaced by non-radioactive medium and cell monolayers were incubated for additional 60, 120, and 240 min and afterwards lysed as described earlier. The internalization was assessed after exposure of the cells to ^177Lu-DOTA-labeled peptides for 10, 30, 60, 120, and 240 min at 37° C. Unspecifically bound peptide was removed from the surface by incubation with 1 M glycine-HCl solution (pH 2.2) for 10 min. The monolayer cell was rinsed with PBS and cells were lysed as described before. Radioactivity was determined in a y-counter and calculated as percentage of the applied dose per 1×10^6 cells. […]

ITGαvβ6 = ITGαvβ6 (Homo sapiens, UniProt P06756+P18564); assay: Surface plasmon resonance assay (SPR), ITGαvβ6; format: binding; conditions: peptide immobilized, integrin as analyte, 1:1 Langmuir fit
Description: Assessment of the binding affinity was performed on a BiaCore X100 (GE Healthcare). To avoid denaturation of the heterodimer during amide activation ITGαvβ6 and ITGαvβ3, respectively, were used as analytes and SFITGv6 was immobilized at its N-terminus on a C1 sensor Chip (BR-1005-35, GE Healthcare) using a manual amine coupling protocol. Briefly, after activation of the sensor chip surface with a solution of EDC 0.4 M/NHS 0.1 M for 5 min a 100 μM peptide dissolved in HBS-EP running buffer (0.1 M HEPES, 30 mM EDTA, 1.5 M NaCl, 0.5% surfactant P20, pH 7.2) was immobilized with a contact time of 30 sec until a loading level of 18 response units (RU) was obtained. […] The SPR-sensogram data were evaluated with the BiaCore evaluation software. The dissociation constant (KD) was determined by a 1:1 Langmuir model fit of the SPR-sensograms.
Assessment of the binding affinity was performed on a BiaCore X100 (GE Healthcare). To avoid denaturation of the heterodimer during amide activation ITGαvβ6 and ITGαvβ3, respectively, were used as analytes and SFITGv6 was immobilized at its N-terminus on a C1 sensor Chip (BR-1005-35, GE Healthcare) using a manual amine coupling protocol. […] The SPR sensogram data were evaluated with the BiaCore evaluation software. The dissociation constant (KD) was determined by a 1:1 Langmuir model fit of the SPR sensograms.

ovarian cancer = assay: Scintigraphy of ovarian cancer patients; format: in vivo, human; conditions: 1 day after 6 GBq and 7.4 GBq
Description: PET/CT scans of tumor patients and body scintigraphy were performed as described in Example 1.

HNO399 cells = assay: In vitro binding on HNO399 cells; format: cell-based, human; conditions: Example 2, 10 min to 480 min (FIG. 16)
Description: For the assessment of the peptide binding capacity in vitro, 2.5-4×10^5 cells were seeded into 6-well plates and cultivated for 48 h. ^125I-labeled peptide resuspended in 1 mL serum-free medium was added and incubated for either 10 min or 60 min with or without different concentrations of unlabeled peptide (10^−4-10^−11 M). Afterwards, cell monolayers were washed three times with 1 mL phosphate-buffered saline (pH 7.4) to remove unbound peptide and the cells were harvested with 1.4 mL lysis buffer (0.3 M NaOH). […] For the efflux experiments the cells were incubated with ^177Lu-DOTA-labeled peptides for 60 min. Thereafter, radioactive medium was replaced by non-radioactive medium and cell monolayers were incubated for additional 60, 120, and 240 min and afterwards lysed as described earlier. […] Unspecifically bound peptide was removed from the surface by incubation with 1 M glycine-HCl solution (pH 2.2) for 10 min. The monolayer cell was rinsed with PBS and cells were lysed as described before. Radioactivity was determined in a y-counter and calculated as percentage of the applied dose per 1×10^6 cells. Experiments were performed three times, and three repetitions per independent experiment were acquired.

Capan-2 cells = assay: In vitro binding, internalization and efflux on Capan-2 cells; format: cell-based, human
Description: For in vitro binding Studies, 4*10^5-6*10^5 cells were seeded in 6 well plates and cultivated for 24 to 48 hours. At the start of the experiment the medium was replaced with 1 ml serum free medium with a definite amount of radioactive labeled peptide per well. For normal binding assays the cells were incubated for 60 min at 37° C. and afterwards washed 3 times with PBS (pH 7.4). Cells were lysed with 2 times 0.5 ml of a 0.3 M NaOH +0.2% SDS lysis-buffer. Competition assays were performed with ^125I-labeled and unlabelled (10^−6 to 10^−11M) peptide and incubated at the same time for 60 min.
Cells were incubated for 10 to 240 min with ^177Lu-labelled peptide in internalization assays. After the washing steps, the cells were incubated with 1 ml glycine-HCl (1 M, pH 2.2) buffer for 10 min to remove surface bound peptide. Prior to the lyses the cells were washed again. Values are given as percentage of applied dose per 10^6 cells.
The efflux was tested with ^177Lu-labeled peptides. After 60 min incubation the radioactive medium was removed and 1 ml fresh serum-free medium was added. After additional incubation of 60, 120 or 240 min, cell bound activity was measured.

SMILES | histochemical peptide staining result (tumor-free lymph nodes) | IC50 [1] | Kd (ITGαvβ6) | scintigraphic accumulation (ovarian cancer) | maximum binding capacity of ^177Lu-DOTA-labeled peptide (kinetics) (HNO399 cells) | cell binding of ^177Lu-DOTA-labeled peptide (Capan-2 cells; after 60 min) | internalization rate in comparison of the three peptides (Capan-2 cells; after 4 hours) | efflux (released into the culture medium) (Capan-2 cells; during 4 hours following 60 min exposure)
CSCC[C@@H]1NC(=O)[C@H](CC(C)C)NC(=O)[C@H](CC(=O)O)NC(=O)CNC(=O)[C@H](CCCNC(=N)N)NC(=O)[C@H](Cc2ccccc2)NC(=O)[C@H]([C@@H](C)O)NC(=O)[C@@H](NC(=O)[C@H](CCCNC(=N)N)NC(=O)CN)CSSC[C@@H](C(=O)N[C@@H](Cc2ccc(O)cc2)C(=O)N2CCC[C@H]2C(=O)N[C@@H](CC(=O)O)C(=O)O)NC(=O)[C@H](CC(C)C)NC(=O)[C@H](CCC(N)=O)NC1=O [SFITGv6, NH2-G-R-C1-T-F-R-G-D-L-M-Q-L-C1-Y-P-D-COOH] (H-GRCTFRGDLMQLCYPD-OH; disulfide 3-13) | did not show any SFITGv6-specificy | 14.1 nM | 14.8 ± 26 nM | – | – | – | – | –
CC(C)C[C@@H]1NC(=O)[C@H](CC(=O)O)NC(=O)CNC(=O)[C@H](CCCNC(=N)N)NC(=O)CNC(=O)[C@H]([C@@H](C)O)NC(=O)[C@@H](NC(=O)[C@H](CCCNC(=N)N)NC(=O)CNC(=O)CN2CCN(CC(=O)O)CCN(CC(=O)O)CCN(CC(=O)O)CC2)CSSC[C@@H](C(=O)N[C@@H](Cc2ccc(O)cc2)C(=O)N2CCC[C@H]2C(=O)N[C@@H](CC(=O)O)C(N)=O)NC(=O)[C@H](CC(C)C)NC(=O)[C@H](CCCNC(=N)N)NC(=O)CNC1=O [^177Lu-DOTA-SFLAP3, metal not drawn] ({DOTA}-GRCTGRGDLGRLCYPD-NH2; disulfide 3-13; N-terminus and C-terminus assumed) | – | – | – | moderate to good accumulation in the metastases | 4.31% | 9.5% | highest internalization rate | 50%
